From US20050059585A1, “Methionine aminopeptidase-2 inhibitors and methods of use thereof” (Praecis Pharmaceuticals Inc., priority 2000, published 2005)

What was measured:
Experiment in all cases: tumor cell line panel, SRB growth assay
Format in all cases: cell-based
[1] = test system: UACC-257; details: Homo sapiens; UACC-257, Melanoma, 48 hours
Description: (§1) The compound of example 5 was also evaluated against a panel of cancer cell lines (Alley, M.C. et al. […] Cancer Research 48: 589-601; Grever, M. R., et al. (1992) Seminars in Oncology, Vol. 19, No. 6, pp 622-638; Boyd, M. R., and Paull, K. D. (1995) Drug Development Research 34: 91-109). The human tumor cell lines of the cancer screening panel were grown in RPMI 1640 medium containing 5% fetal bovine serum and 2 mM L-glutamine. Cells were inoculated into 96 well microtiter plates in 100 μL at plating densities ranging from 5,000 to 40,000 cells/well depending on the doubling time of individual cell lines. After cell inoculation, the microtiter plates were incubated at 37° C., 5 % CO2, 95 % air and 100 % relative humidity for 24 hours prior to addition of experimental drugs.
(§2) After the 24 hour incubation period, two plates of each cell line were fixed in situ with TCA, to represent a measurement of the cell population for each cell line at the time of drug addition (Tz). Experimental drugs were solubilized in dimethyl sulfoxide at 400-fold the desired final maximum test concentration and stored frozen prior to use. At the time of drug addition, an aliquot of frozen concentrate was thawed and diluted to twice the desired final maximum test concentration with complete medium containing 50 μg/ml gentamicin. Additional four, 10-fold or ½ log serial dilutions were made to provide a total of five drug concentrations plus control. Aliquots of 100 μl of these different drug dilutions were added to the appropriate microtiter wells already containing 100 μl of medium, resulting in the required final drug concentrations.
(§3) Following drug addition, the plates were incubated for an additional 48 hours at 37° C., 5 % CO2, 95 % air, and 100 % relative humidity. For adherent cells, the assay was terminated by the addition of cold TCA. Cells were fixed in situ by the gentle addition of 50 μl of cold 50 % (w/v) TCA (final concentration, 10% TCA) and incubated for 60 minutes at 4° C. The supernatant was discarded, and the plates were washed five times with tap water and air dried. Sulforhodamine B (SRB) solution (100 μl) at 0.4 % (w/v) in 1 % acetic acid were added to each well, and plates were incubated for 10 minutes at room temperature. After staining, unbound dye was removed by washing five times with 1 % acetic acid and the plates were air dried. Bound stain was subsequently solubilized with 10 mM trizma base, and the absorbance was read on an automated plate reader at a wavelength of 515 nm. For suspension of the cells, the methodology used was the same except that the assay was terminated by fixing settled cells at the bottom of the wells by gently adding 50 μl of 80 % TCA (final concentration, 16% TCA). Using the seven absorbance measurements [time zero, (Tz), control growth, (C), and test growth in the presence of drug at the five concentration levels (Ti)], the percentage growth was calculated at each of the drug concentrations levels.
(§4) Percentage growth inhibition was calculated as: [(Ti−Tz)/(C−Tz)]×100 for concentrations for which Ti>/=Tz [(Ti−Tz)/Tz]×100 for concentrations for which Ti<Tz.
(§5) Growth inhibition of 50% (GI50) was calculated from [(Ti−Tz)/(C−Tz)]×100=50, which is the drug concentration resulting in a 50% reduction in the net protein increase (as measured by SRB staining) in control cells during the drug incubation. The G150 was calculated for each of the cell lines if the level of activity is reached; however, if the effect was not reached or is exceeded, the value for that parameter is expressed as greater or less than the maximum (10^−4 M) or minimum (10^−8 M) concentration tested.

[2] = test system: ACHN; details: Homo sapiens, Renal, 48 hours
Description: as §1, §2, §3, §4, §5

[3] = test system: CAKI-1; details: Homo sapiens; CAKI-1, Renal, 48 hours
Description: as §1, §2, §3, §4, §5

[4] = test system: MDA-N; details: Homo sapiens, Breast, 48 hours
Description: as §1, §2, §3, §4, §5

[5] = test system: SF-268; details: Homo sapiens; SF-268, CNS, 48 hours
Description: as §1, §2, §3, §4, §5

[6] = test system: NCI-H522; details: Homo sapiens; NCI-H522, Non-Small Cell Lung, 48 hours
Description: as §1, §2, §3, §4, §5

[7] = test system: HCT-15; details: Homo sapiens; HCT-15, Colon, 48 hours
Description: as §1, §2, §3, §4, §5

[8] = test system: SK-MEL-2; details: Homo sapiens; SK-MEL-2, Melanoma, 48 hours
Description: as §1, §2, §3, §4, §5

[9] = test system: DU-145; details: Homo sapiens; DU-145, Prostate, 48 hours
Description: as §1, §2, §3, §4, §5

[10] = test system: SK-MEL-5; details: Homo sapiens; SK-MEL-5, Melanoma, 48 hours
Description: as §1, §2, §3, §4, §5

[11] = test system: IGR-OV1; details: Homo sapiens, IGROV-1; IGR-OV1, Ovarian, 48 hours
Description: as §1, §2, §3, §4, §5

[12] = test system: SNB-19; details: Homo sapiens; SNB-19, CNS, 48 hours
Description: as §1, §2, §3, §4, §5

[13] = test system: OVCAR-5; details: Homo sapiens; OVCAR-5, Ovarian, 48 hours
Description: as §1, §2, §3, §4, §5

[14] = test system: MDA-MB-231/ATCC; details: Homo sapiens, Breast, 48 hours
Description: as §1, §2, §3, §4, §5

[15] = test system: M14; details: Homo sapiens; M14, Melanoma, 48 hours
Description: as §1, §2, §3, §4, §5

[16] = test system: NCI-H322M; details: Homo sapiens, Non-Small Cell Lung, 48 hours
Description: as §1, §2, §3, §4, §5

[17] = test system: MOLT-4; details: Homo sapiens; MOLT-4, Leukemia, 48 hours
Description: as §1, §2, §3, §4, §5

[18] = test system: SW-620; details: Homo sapiens; SW-620, Colon, 48 hours
Description: as §1, §2, §3, §4, §5

[19] = test system: OVCAR-3; details: Homo sapiens; OVCAR-3, Ovarian, 48 hours
Description: as §1, §2, §3, §4, §5

[20] = test system: OVCAR-4; details: Homo sapiens; OVCAR-4, Ovarian, 48 hours
Description: as §1, §2, §3, §4, §5

[21] = test system: HL-60(TB); details: Homo sapiens, Leukemia, 48 hours
Description: as §1, §2, §3, §4, §5

`CO[C@@H]1[C@H](OC(=O)N[C@@H](C(N)=O)C(C)C)CC[C@]2(CO2)[C@H]1[C@@]1(C)O[C@@H]1CC=C(C)C` [Example 5, (1-Carbamoyl-2-methyl-propyl)-carbamic acid-(3R, 4S, 5S, 6R )-5-methoxy-4-[(2R, 3R)-2-methyl-3-(3-methyl-but-2-enyl)-oxiranyl]-1-oxa-spiro[2.5]oct-6-yl ester] was tested, and the GI50 [1] was 1.48 µM, the GI50 [2] was < 0.01 µM and the GI50 [3] was < 0.01 µM. The GI50 [4] was 1.58 µM, the GI50 [5] was 26.1 µM and the GI50 [6] was 12.9 µM. For the same molecule, the GI50 [7] was 7.13 µM, the GI50 [8] was > 100 µM and the GI50 [9] was < 0.01 µM. The GI50 [10] was > 100 µM, the GI50 [11] was < 0.01 µM and the GI50 [12] was < 0.01 µM. The GI50 [13] was 0.0135 µM, the GI50 [14] was < 0.01 µM and the GI50 [15] was < 0.01 µM. The GI50 [16] was 0.0468 µM, the GI50 [17] was 35.6 µM and the GI50 [18] was > 100 µM. For the same molecule, the GI50 [19] was 41.8 µM, the GI50 [20] was 36.6 µM and the GI50 [21] was 21.7 µM.
